ΣFIC with colistin data for 1 molecule are collected here from patent publication US20210283107A1, “Methods to Expand the Spectrum of Gram-Positive Antibiotics” (NORTH CAROLINA STATE UNIVERSITY, priority 2016, published 2021).

The test system of this test is AB5075. In words: Checkerboard assay for FIC determination with colistin. It is filed as cell-based, Acinetobacter baumannii. Conditions: chequerboard, ΣFIC≥2 considered antagonistic. The protocol:
Against AB5075, we determined that the ΣFIC with compound 1 to be 17 and the ΣFIC with compound 10 to be 33. These ΣFIC values indicate that both compounds are highly antagonistic with colistin as a ΣFIC≥2 is considered antagonistic.
Day Cultures (6 h) of A. baumannii 5075 were subcultured to 5×10^5 CFU/mL in cation adjusted Mueller-Hinton broth (CAMHB). 100 μL of the inoculated media was distributed into all wells of a 96-well plate except well 1A. Inoculated CAMHB (200 μL) containing compound (twice the highest concentration tested) was added to well 1A, and 100 μL of the same sample was added to wells 2A-12A. The contents in column A were mixed five times before 100 μL was transferred to column B. The contents of column B were mixed 5 times before transferring to column C. This process was repeated with the remainder of the columns up to column G. Column H was not mixed to allow determination of the antibiotic MIC alone. […] Row 12 was not mixed so that the MIC of the compound alone could be determined. The MICs of both compound and antibiotic alone were recorded, as well as the wells containing the combination. The ΣFICs were calculated as follows: ΣFIC=FIC (Compound)+FIC (antibiotic), where FIC (compound) is the MIC of the compound in the combination/MIC of the compound alone and the FIC (antibiotic) is the MIC of the antibiotic in combination/the MIC of the antibiotic alone. […]

With `Nc1nc(-c2ccc(NC(=O)c3cc(Cl)cc(Cl)c3)cc2)c[nH]1` [Compound 1], the ΣFIC with colistin is 17.
